Measurements published in ChEMBL document CHEMBL1201862, “PubChem BioAssay data set” (2004).
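Method: 48-hour compound exposure of cells in 96-well plates, five concentrations, linear interpolation of endpoints. GI50 is the concentration that inhibits growth by half.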 Active and inactive are the calls of the source. Cut-off read from the data, not from the text of the source: active = GI50 up to about 1.1 µM and inactive = higher.

Key:
Test in all cases: NCI tumour cell line growth inhibition, 48 h
[1] = test system: LOX IMVI
[2] = test system: HCT-116
[3] = test system: NCI-H23
[4] = test system: SK-MEL-5
[5] = test system: OVCAR-3
[6] = test system: OVCAR-8
[7] = test system: RPMI-8226
[8] = test system: NCI-H460
[9] = test system: NCI-H226
[10] = test system: UACC-62
[11] = test system: CCRF-CEM
[12] = test system: SN12C
[13] = test system: RXF 393
[14] = test system: ACHN
[15] = test system: 786-0
[16] = test system: K562
[17] = test system: KM12

Row | Compound | GI50 [1] | GI50 [2] | GI50 [3] | GI50 [4] | GI50 [5] | GI50 [6] | GI50 [7] | GI50 [8] | GI50 [9] | GI50 [10] | GI50 [11] | GI50 [12] | GI50 [13] | GI50 [14] | GI50 [15] | GI50 [16] | GI50 [17]
1 | COC1(OC)CC2C(=O)N(Cc3ccccc3)C1CC2S(=O)(=O)c1ccccc1 (configuration not stated) | > 100 µM (inactive) | > 100 µM (inactive) | > 100 µM (inactive) | > 100 µM (inactive) | > 100 µM (inactive) | > 100 µM (inactive) | > 100 µM (inactive) | > 100 µM (inactive) | > 100 µM (inactive) | > 100 µM (inactive) | > 100 µM (inactive) | > 100 µM (inactive) | > 100 µM (inactive) | > 100 µM (inactive) | > 100 µM (inactive) | > 100 µM (inactive) | > 100 µM (inactive)
2 | CCOC(=O)NN(C(=O)OCC)C(C(=O)c1ccc(Cl)cc1)=C1NCCN1 | > 100 µM (inactive) | > 100 µM (inactive) | > 100 µM (inactive) | > 100 µM (inactive) | > 100 µM (inactive) | > 100 µM (inactive) |  | > 100 µM (inactive) | > 100 µM (inactive) | > 100 µM (inactive) | > 100 µM (inactive) | > 100 µM (inactive) | > 100 µM (inactive) | > 100 µM (inactive) | > 100 µM (inactive) | > 100 µM (inactive) | > 100 µM (inactive)
3 | Cn1cc(NC(=O)c2cc(NC(=O)CCCCCCCCC(=O)Nc3cc(C(=O)Nc4cc(C(=O)NCCC(N)N)n(C)c4)n(C)c3)cn2C)cc1C(=O)NCCC(=N)N | 36.9 µM (inactive) | 20 µM (inactive) | 33.9 µM (inactive) | 4.74 µM (inactive) | 31 µM (inactive) | 21.4 µM (inactive) | 5.35 µM (inactive) | 20.1 µM (inactive) | 25.8 µM (inactive) | 20.7 µM (inactive) | 20.7 µM (inactive) | 23.8 µM (inactive) | 21.2 µM (inactive) | 17.9 µM (inactive) | 21.9 µM (inactive) | 13.4 µM (inactive) | 18.5 µM (inactive)
4 | CCC12C=CCN3CCC4(C(=C(C(=O)OC)C1)Nc1ccccc14)[C@H]32 (some centres not stated) | 20.8 µM (inactive) | 30.8 µM (inactive) | 28.4 µM (inactive) | 27.2 µM (inactive) | 30.8 µM (inactive) |  |  | 18.8 µM (inactive) | 31.8 µM (inactive) | 21.3 µM (inactive) | 22.2 µM (inactive) |  | 24.9 µM (inactive) | 64 µM (inactive) | 23.4 µM (inactive) | 18.8 µM (inactive) | 25.8 µM (inactive)
5 | COc1cc(C(C#N)NNC(=O)c2ccccc2O)ccc1O (configuration not stated) | 2.33 µM (inactive) | 2.26 µM (inactive) | 2.07 µM (inactive) | 9.95 µM (inactive) | 3.44 µM (inactive) | 5.83 µM (inactive) | 9.64 µM (inactive) | 1.47 µM (inactive) | 2.05 µM (inactive) | 0.887 µM (active) | 2.08 µM (inactive) | 7.03 µM (inactive) | 0.349 µM (active) | 0.873 µM (active) | 2.7 µM (inactive) | 0.622 µM (active) | 3.85 µM (inactive)
6 | C/N=c1\ss/c(=N\C(=S)N(C)C)n1C |  | > 100 µM (inactive) | > 100 µM (inactive) | > 100 µM (inactive) |  | > 100 µM (inactive) | > 100 µM (inactive) | > 100 µM (inactive) | 27.5 µM (inactive) | > 100 µM (inactive) | > 100 µM (inactive) | > 100 µM (inactive) | > 100 µM (inactive) | > 100 µM (inactive) | > 100 µM (inactive) | > 100 µM (inactive) | > 100 µM (inactive)
7 | CCC12C=CCN3CCC4(c5cc(C6(C(=O)OC)CCCCCc7c6[nH]c6ccccc76)c(OC)cc5N(C)C4C(O)(C(=O)OC)C1OC(C)=O)C32 (configuration not stated) | 1.61 µM (inactive) | 2.9 µM (inactive) |  |  | 3.83 µM (inactive) | 3.06 µM (inactive) | 2.47 µM (inactive) | 2.31 µM (inactive) | 2.64 µM (inactive) | 1.64 µM (inactive) | 1.97 µM (inactive) | 3.63 µM (inactive) | 1.64 µM (inactive) | 1.61 µM (inactive) | 2.29 µM (inactive) | 2.82 µM (inactive) | 2.55 µM (inactive)
8 | CO[C@@]12CC(=O)/C(=C(O)\C=C\c3ccccc3)C(=O)[C@]1(OC)Cc1ccccc1O2 | 32.3 µM (inactive) | 30.1 µM (inactive) | 20.6 µM (inactive) | 36.5 µM (inactive) | 26.2 µM (inactive) | 22.3 µM (inactive) |  | 28.9 µM (inactive) | 22.5 µM (inactive) | 21.9 µM (inactive) | 22.4 µM (inactive) | 30.6 µM (inactive) | 18.8 µM (inactive) | 25.4 µM (inactive) | 24.7 µM (inactive) | 33.7 µM (inactive) | 19.8 µM (inactive)
